Tests used:
[1] = target: T1, Human recombinant AT1 receptor (Homo sapiens, UniProt P30556); assay: AT1 receptor radioligand binding (flashplate); conditions: 125I Sar1,Ile8-Angiotensin II radioligand
T1 construct: purchased
T1 sequence (P30556 1-359): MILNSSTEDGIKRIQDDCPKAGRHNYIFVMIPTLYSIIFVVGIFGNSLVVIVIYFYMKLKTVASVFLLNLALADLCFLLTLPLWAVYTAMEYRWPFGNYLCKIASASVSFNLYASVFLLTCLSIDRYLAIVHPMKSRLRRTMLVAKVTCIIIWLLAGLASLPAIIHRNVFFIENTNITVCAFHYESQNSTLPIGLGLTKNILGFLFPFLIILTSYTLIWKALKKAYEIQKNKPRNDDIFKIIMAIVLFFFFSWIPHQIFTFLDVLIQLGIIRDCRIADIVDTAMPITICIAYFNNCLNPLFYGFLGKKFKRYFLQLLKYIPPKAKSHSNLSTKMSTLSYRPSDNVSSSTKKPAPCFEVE
Description: Angiotensin II receptor antagonist activity may be determined using commercially available flashplates coated with the AT1 or AT2 receptor which provide a rapid and high throughput means to evaluate compounds compared to traditional filtration based assays (Regina M. Van Der Hee et al., Journal of Biomolecular Screening 10(2); 2005; 118-126).
AT1 receptor affinity was determined in a radioligand binding format using commercially available flashplate technology. Human recombinant AT1 receptor were coated on the wells of a 96 well flashplate and test compounds were diluted and added to wells at a final concentration range of 50 μM to 1 μM. Total binding was determined in the absence of compound and non-specific binding in the presence of 10 μM cold Angiotensin II. ^125I labeled Sar^1, Ile^8-Angiotensin II was added to all wells at Kd concentration and left for 2 hours at room temperature to equilibrate. Plates were read on a TopCount (Perkin Elmer) and concentration-response curves constructed using commercial curve fitting software. The Ki was determined via interpolation and the use of the Cheng-Prussof equation.

[2] = target: T2, human PPARγ LBD bound to Gal4 DBD (Homo sapiens, UniProt P37231); assay: PPARγ transfection luciferase reporter assay in HepG2 cells; assay type: cell-based; conditions: for Emax: HepG2, 24 h, compared to full agonist response (standard TZD full agonist), read-out: PPARγ % activation; for EC50: HepG2, 24 hours exposure
T2 construct: expressed in transfected cells; host or cells: HepG2
T2 sequence (P37231 238-503 limits assumed): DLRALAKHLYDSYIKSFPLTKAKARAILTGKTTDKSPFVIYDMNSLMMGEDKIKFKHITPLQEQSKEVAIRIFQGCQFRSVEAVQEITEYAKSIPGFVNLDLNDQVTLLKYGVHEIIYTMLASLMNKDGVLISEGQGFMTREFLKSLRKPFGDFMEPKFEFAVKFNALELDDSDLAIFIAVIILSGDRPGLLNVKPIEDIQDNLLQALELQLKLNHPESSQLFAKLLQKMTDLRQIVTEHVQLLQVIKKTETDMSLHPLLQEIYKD
Description: PPARγ agonist activity may be determined by a cell line transiently transfected with PPARγ bound to a DNA binding domain that controls luciferase expression. The degree of receptor agonism is measured by the amount of luciferase activity after compound treatment. The ratio of treated cells over vehicle control cells provides a measure of fold activation and allows an EC50 (shown in tables I and II as […] EC50) and % activation to be calculated
A human hepatocellular carcinoma cell line (HepG2) was subcultured into dishes and transiently transfected with DNA to allow expression of human PPARγ LBD bound to Gal4 DBD. Luciferase reporter gene and β-galactosidase control genes were co-transfected to enable activity to be measured. After 24 hours, cells were exposed to compounds in the concentration range of 0.1 nM-100 μM and left for a further 24 hours. Luciferase activity is determined by luminometry and PPARγ activation is expressed as a ratio of luciferase activity to β-galactosidase activity to account for transfection efficiency. Potency is described by an EC50 defined as the concentration of compound producing receptor activation equivalent to 50% of the maximum for that compound (shown in Table I as transfection EC50). The maximum fold activation is a measure of efficacy and is expressed as a percentage of a reference full agonist run in the same assay. Efficacy is described by % activation of receptor relative to a standard thiazolidinedione (TZD) full agonist.

IC50 [1] [nM] | Emax [2] [%] | EC50 [2] [nM] | SMILES
1.7 | 19 | 85 | CCc1nc2c(C)cc(CC(C)O)nc2n1[C@H]1CCc2cc(-c3ccccc3-c3nnn[nH]3)ccc21 (mixture of isomers) [Example 15, 1-(3-((1S)-5-(2-(1H-tetrazol-5-yl)phenyl)-2,3-dihydro-1H-inden-1-yl)-2-ethyl-7-methyl-3H-imidazo[4,5-b]pyridin-5-yl)propan-2-ol]
1.3 | 16 | 60 | CCc1nc2c(C)cc([C@@H](O)c3ccccc3)nc2n1[C@H]1CCc2cc(-c3ccccc3-c3nnn[nH]3)ccc21 (single isomer, unassigned) [Example 8a]
0.5 | 24 | 270 | CCc1nc2c(C)cc(CC[C@@H](C)O)nc2n1[C@H]1CCc2cc(-c3ccccc3-c3nnn[nH]3)ccc21 (single isomer, unassigned) [Example 37]
1.9 | 21 | 95 | CCc1nc2c(C)cc(CC3CCCCC3O)nc2n1[C@H]1CCc2cc(-c3ccccc3-c3nnn[nH]3)ccc21 (single isomer, unassigned) [Example 64]
2.3 | 22 | 245 | CCc1nc2c(C)cc(CC3CCCC3O)nc2n1[C@H]1CCc2cc(-c3ccccc3-c3nnn[nH]3)ccc21 (single isomer, unassigned) [Example 65]
4.5 | 27 | 90 | CCc1nc2c(C)cc(Cc3ccccc3)nc2n1[C@H]1CCc2cc(-c3ccccc3-c3nnn[nH]3)ccc21 [Example 1, 3-((1S)-5-(2-(1H-tetrazol-5-yl)phenyl)-2,3-dihydro-1H-inden-1-yl)-5-benzyl-2-ethyl-7-methyl-3H-imidazo[4,5-b]pyridine]
3.5 | 29 | 105 | CCc1nc2c(C)cc(Cc3ccccn3)nc2n1[C@H]1CCc2cc(-c3ccccc3-c3nnn[nH]3)ccc21 [Example 2, 3-((1S)-5-(2-(1H-tetrazol-5-yl)phenyl)-2,3-dihydro-1H-inden-1-yl)-2-ethyl-7-methyl-5-(pyridin-2-ylmethyl)-3H-imidazo[4,5-b]pyridine]
1.6 | 32 | 665 | CCc1nc2c(C)cc(COC)nc2n1[C@H]1CCc2cc(-c3ccccc3-c3nnn[nH]3)ccc21 [Example 3, 3-((1S)-5-(2-(1H-tetrazol-5-yl)phenyl)-2,3-dihydro-1H-inden-1-yl)-2-ethyl-5-(methoxymethyl)-7-methyl-3H-imidazo[4,5-b]pyridine]
2.2 | 32 | 295 | CCc1nc2c(C)cc(COC(C)C)nc2n1[C@H]1CCc2cc(-c3ccccc3-c3nnn[nH]3)ccc21 [Example 4, 3-((1S)-5-(2-(1H-tetrazol-5-yl)phenyl)-2,3-dihydro-1H-inden-1-yl)-2-ethyl-5-(isopropoxymethyl)-7-methyl-3H-imidazo[4,5-b]pyridine]
10 | 46 | 275 | CCc1nc2c(C)cc(Cn3cccn3)nc2n1[C@H]1CCc2cc(-c3ccccc3-c3nnn[nH]3)ccc21 [Example 6, 5-((1H-pyrazol-1-yl)methyl)-3-((1S)-5-(2-(1H-tetrazol-5-yl)phenyl)-2,3-dihydro-1H-inden-1-yl)-2-ethyl-7-methyl-3H-imidazo[4,5-b]pyridine]
1.5 | 25 | 100 | CCc1nc2c(C)cc([C@H](O)c3ccccc3)nc2n1[C@H]1CCc2cc(-c3ccccc3-c3nnn[nH]3)ccc21 [Example 8b, (R)-(3-((1S)-5-(2-(1H-tetrazol-5-yl)phenyl)-2,3-dihydro-1H-inden-1-yl)-2-ethyl-7-methyl-3H-imidazo[4,5-b]pyridin-5-yl)(phenyl)methanol]
2.7 | 27 | 60 | C=CCc1cc(C)c2nc(CC)n([C@H]3CCc4cc(-c5ccccc5-c5nnn[nH]5)ccc43)c2n1 [Example 9, 3-((1S)-5-(2-(1H-tetrazol-5-yl)phenyl)-2,3-dihydro-1H-inden-1-yl)-5-allyl-2-ethyl-7-methyl-3H-imidazo[4,5-b]pyridine]
16 | 39 | 440 | CCc1nc2c(C)cc([C@H](O)C(C)C)nc2n1[C@H]1CCc2cc(-c3ccccc3-c3nnn[nH]3)ccc21 [Example 11, (R)-1-(3-((1S)-5-(2-(1H-tetrazol-5-yl)phenyl)-2,3-dihydro-1H-inden-1-yl)-2-ethyl-7-methyl-3H-imidazo[4,5-b]pyridin-5-yl)-2-methylpropan-1-ol]
0.7 | 17 | 460 | CCc1nc2c(C)cc([C@@H](OC)C(C)C)nc2n1[C@H]1CCc2cc(-c3ccccc3-c3nnn[nH]3)ccc21 [Example 12, 3-((1S)-5-(2-(1H-tetrazol-5-yl)phenyl)-2,3-dihydro-1H-inden-1-yl)-2-ethyl-5-((S)-1-methoxy-2-methylpropyl)-7-methyl-3H-imidazo[4,5-b]pyridine]
5 | 21 | 410 | CCc1nc2c(C)cc(CC(C)=O)nc2n1[C@H]1CCc2cc(-c3ccccc3-c3nnn[nH]3)ccc21 [Example 14, 1-(3-((1S)-5-(2-(1H-tetrazol-5-yl)phenyl)-2,3-dihydro-1H-inden-1-yl)-2-ethyl-7-methyl-3H-imidazo[4,5-b]pyridin-5-yl)propan-2-one]
8.8 | 24 | 65 | CCc1nc2c(C)cc(C(C)(C)OC)nc2n1[C@H]1CCc2cc(-c3ccccc3-c3nnn[nH]3)ccc21 [Example 17, 3-((1S)-5-(2-(1H-tetrazol-5-yl)phenyl)-2,3-dihydro-1H-inden-1-yl)-2-ethyl-5-(2-methoxypropan-2-yl)-7-methyl-3H-imidazo[4,5-b]pyridine]
5.4 | 29 | 85 | CCc1nc2c(C)cc(CC(O)CC(C)C)nc2n1[C@H]1CCc2cc(-c3ccccc3-c3nnn[nH]3)ccc21 (stereo partly drawn) [Example 18, 1-(3-((1S)-5-(2-(1H-tetrazol-5-yl)phenyl)-2,3-dihydro-1H-inden-1-yl)-2-ethyl-7-methyl-3H-imidazo[4,5-b]pyridin-5-yl)-4-methylpentan-2-ol]
7.2 | 20 | 105 | CCc1nc2c(C)cc(CC(O)C3CC3)nc2n1[C@H]1CCc2cc(-c3ccccc3-c3nnn[nH]3)ccc21 (stereo partly drawn) [Example 19, 2 (3-((1S)-5-(2-(1H-tetrazol-5-yl)phenyl)-2,3-dihydro-1H-inden-1-yl)-2-ethyl-7-methyl-3H-imidazo[4,5-b]pyridin-5-yl)-1-cyclopropylethanol]
5.7 | 31 | 70 | C=CCC(O)Cc1cc(C)c2nc(CC)n([C@H]3CCc4cc(-c5ccccc5-c5nnn[nH]5)ccc43)c2n1 (stereo partly drawn) [Example 20, 1-(3-((1S)-5-(2-(1H-tetrazol-5-yl)phenyl)-2,3-dihydro-1H-inden-1-yl)-2-ethyl-7-methyl-3H-imidazo[4,5-b]pyridin-5-yl)pent-4-en-2-ol]

SMILES | IC50 [1] [nM] | Emax [2] [%] | EC50 [2] [nM]
CCc1nc2c(C)cc(COC(C)(C)C)nc2n1[C@H]1CCc2cc(-c3ccccc3-c3nnn[nH]3)ccc21 [Example 5, 3-((1S)-5-(2-(1H-tetrazol-5-yl)phenyl)-2,3-dihydro-1H-inden-1-yl)-5-(tert-butoxymethyl)-2-ethyl-7-methyl-3H-imidazo[4,5-b]pyridine] | 2.9 | 48 | 290
